One experiment relates to CAF1 monoculture. The experiment in a line: Dose response and combination treatment in CAF1 monoculture. Format: cell-based. To be noted: combination with FFX. From the text: FIGS. 7A-C. […] FIGS. 8A-C. […] Values indicate percent killing, as compared to untreated cells, such that 0 indicates no killing and 100 indicates all cells killed. (e) Combination drug treatments of CAF1 monoculture. Values indicate percent killing, as compared to untreated cells, such that 0 indicates no killing and 100 indicates all cells killed. […] In order to evaluate whether oxo could synergize with FOLFIRINOX, we performed combinatorial drug treatment in PDAC monoculture and PDAC/CAF co-culture settings (FIG. 9A). […] In order to assess for synergistic activity between Oxo and FOLFIRINOX, we used the Bliss independence model to analyze our drug combination experiments (Bliss, 1939; Yadav et al., 2015).

Experiment [1] has as its system PDAC monoculture and PDAC/CAF co-culture. The experiment in a line: Combinatorial drug treatment, percent killing and Bliss synergy. Format: cell-based, human. From the text:
FIGS. 9A-E. Combinational drug treatment (Oxo+FFX) in PDAC alone or PDAC+CAF coculture. […] (b) Combination drug treatments of PDAC 3 and PDAC 6, as monoculture or co-culture with CAF1. Values indicate percent killing, as compared to untreated cells, such that 0 indicates no killing and 100 indicates all cells killed. (c) Bliss plots of synergistic activity between 5z-7-oxozeaenol and FFX, where positive values represent synergistic activity, negative values represent anti-synergistic activity, and 0 represents no synergy. Synergy data are based on values from 8B. (d) Combination drug treatments of PDAC 8 and PDAC 9, as monoculture or co-culture with CAF1. Values indicate percent killing, as compared to untreated cells, such that 0 indicates no killing and 100 indicates all cells killed. (e) Combination drug treatments of CAF1 monoculture. Values indicate percent killing, as compared to untreated cells, such that 0 indicates no killing and 100 indicates all cells killed. FIG. 10. Combinational drug treatment (Losartan+FFX) in PDAC alone or PDAC+CAF coculture. Combination drug treatments of PDAC 3 and PDAC 6, as monoculture or co-culture with CAF1. Values indicate percent killing, as compared to untreated cells, such that 0 indicates no killing and 100 indicates all cells killed. In order to evaluate whether oxo could synergize with FOLFIRINOX, we performed combinatorial drug treatment in PDAC monoculture and PDAC/CAF co-culture settings (FIG. 9A). […] In order to assess for synergistic activity between Oxo and FOLFIRINOX, we used the Bliss independence model to analyze our drug combination experiments (Bliss, 1939; Yadav et al., 2015).

The subject of experiment [2] is QM and E PDAC monoculture and co-culture with CAF1. The experiment in a line: FFX dose response in PDAC monoculture and co-culture with CAF1. The class given is cell-based, human. To be noted: both monocultures and CAF co-culture conditions.
From the text: (a) Dose response curves in QM and E PDAC monoculture and co-culture with CAF1, as well as CAF1 monoculture, following FFX treatment. (b) FFX IC50 for QM and E PDAC monoculture versus co-culture with CAF1. […] (a) Dose response curves in QM and E PDAC monoculture following combination 5z-7-oxozeaenol and FFX treatment. (b) Dose response curves in QM and E PDAC co-culture with CAF1 following combination 5z-7-oxozeaenol and FFX treatment. (c) Dose response curves in CAF1 monoculture following combination 5z-7-oxozeaenol and FFX treatment. […] (a) Dose response curves in QM and E PDAC monoculture following combination losartan and FFX treatment. (b) Dose response curves in QM and E PDAC co-culture with CAF1 following combination losartan and FFX treatment. (c) Dose response curves in CAF1 monoculture following combination losartan and FFX treatment. PDAC cells were co-cultured with fibroblasts (CAF) to more closely mimic the tumor microenvironment.
In experiment [3] the test system is PDAC cell lines. The experiment in a line: Clonogenic assay (crystal violet, colony area by Image J). The class given is cell-based, human. As to conditions: 2 weeks. The method, then: (§1) FIGS. 3A-D. Graphs showing relative cell growth of (a) QM and (b) E PDACs in 3D condition upon FFX and/or Oxo treatment with indicated concentrations for 2 weeks. Cell viability was measured using CellTiter Glo assay. Images showing growing PDACs (in 3D) under these conditions. (c) Graphs with results for clonogenic assay upon FFX and/or Oxo treatment with indicated concentrations for 2 weeks. Then, cells were fixed with 3.7% PFA and stained with crystal violet. Relative colony area was measured using Image J. (d) Images with 2D (Boyden chamber) and 3D invasion assays (type I collagen embedded) of PDAC cell lines incubated with Oxo for 3 days.
FIGS. 4A-F. Effects of TAK1 Knockout in PDAC EMT Plasticity. (a) Western blots showing complete ablation of TAK1 across PDAC cell lines. (b) Heatmaps based on RNA-ISH and total RNA-seq showing EMT signatures in TAK1 KO PDAC6 and PDAC9 cell lines. (c) Clonogenic assays for WT (non-targeting single guide RNA, sgRNA) and TAK1 KO cell lines treated with FFX for 2 weeks. Colony area was determined by Image J. (d) Images with 2D invasion assay (Boyden chamber) in TAK1 KO PDAC cell lines. (e) Graphs confirming functional ablation of TAK1 represented by TAK1 downstream activity of p-MEK1/2 and p-ERK1/2 under TGFbeta stimulation. (f) Graphs with results for clonogenic assay upon FFX and/or Takinib treatment with indicated concentrations for 2 weeks.

For a further experiment, the target named is T1, TAK1 (Homo sapiens, UniProt O43318).
T1 sequence (O43318 1-606): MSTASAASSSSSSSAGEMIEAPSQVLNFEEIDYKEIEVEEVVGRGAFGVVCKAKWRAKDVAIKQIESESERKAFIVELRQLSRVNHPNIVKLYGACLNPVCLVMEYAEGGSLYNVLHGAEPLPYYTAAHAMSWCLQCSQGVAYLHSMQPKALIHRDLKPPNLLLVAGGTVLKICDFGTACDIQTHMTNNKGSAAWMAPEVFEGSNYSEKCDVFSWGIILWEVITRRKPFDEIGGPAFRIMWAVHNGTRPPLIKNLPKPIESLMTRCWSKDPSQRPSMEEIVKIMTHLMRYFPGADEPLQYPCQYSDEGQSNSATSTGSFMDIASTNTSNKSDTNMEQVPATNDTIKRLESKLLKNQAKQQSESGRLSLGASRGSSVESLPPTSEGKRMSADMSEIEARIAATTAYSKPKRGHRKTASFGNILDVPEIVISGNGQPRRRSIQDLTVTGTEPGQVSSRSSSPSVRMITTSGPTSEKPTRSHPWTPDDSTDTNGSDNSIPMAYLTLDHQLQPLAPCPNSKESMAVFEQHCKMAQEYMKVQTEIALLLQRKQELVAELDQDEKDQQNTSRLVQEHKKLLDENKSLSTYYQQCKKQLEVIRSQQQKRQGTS
T1 sequence (Q15750 1-504 partner): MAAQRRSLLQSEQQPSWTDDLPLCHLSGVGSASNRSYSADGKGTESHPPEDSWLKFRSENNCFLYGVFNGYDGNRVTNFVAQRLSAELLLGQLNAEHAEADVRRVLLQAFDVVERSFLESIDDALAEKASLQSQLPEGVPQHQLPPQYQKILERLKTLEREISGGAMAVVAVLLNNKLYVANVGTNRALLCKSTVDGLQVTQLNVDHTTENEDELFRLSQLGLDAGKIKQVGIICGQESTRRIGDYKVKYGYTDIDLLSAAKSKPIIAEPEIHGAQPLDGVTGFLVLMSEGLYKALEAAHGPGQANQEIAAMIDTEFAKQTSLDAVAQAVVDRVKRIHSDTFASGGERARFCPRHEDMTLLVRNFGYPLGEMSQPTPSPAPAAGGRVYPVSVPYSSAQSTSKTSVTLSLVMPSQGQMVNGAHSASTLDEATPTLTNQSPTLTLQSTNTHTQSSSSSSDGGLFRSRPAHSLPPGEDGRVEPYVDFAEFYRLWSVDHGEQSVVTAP
To be noted: cited from earlier work.

A further experiment concerns MEK. To be noted: cited from earlier work.
The target of another experiment is T2, FLT3 (Homo sapiens, UniProt P36888).
T2 sequence (P36888 27-993): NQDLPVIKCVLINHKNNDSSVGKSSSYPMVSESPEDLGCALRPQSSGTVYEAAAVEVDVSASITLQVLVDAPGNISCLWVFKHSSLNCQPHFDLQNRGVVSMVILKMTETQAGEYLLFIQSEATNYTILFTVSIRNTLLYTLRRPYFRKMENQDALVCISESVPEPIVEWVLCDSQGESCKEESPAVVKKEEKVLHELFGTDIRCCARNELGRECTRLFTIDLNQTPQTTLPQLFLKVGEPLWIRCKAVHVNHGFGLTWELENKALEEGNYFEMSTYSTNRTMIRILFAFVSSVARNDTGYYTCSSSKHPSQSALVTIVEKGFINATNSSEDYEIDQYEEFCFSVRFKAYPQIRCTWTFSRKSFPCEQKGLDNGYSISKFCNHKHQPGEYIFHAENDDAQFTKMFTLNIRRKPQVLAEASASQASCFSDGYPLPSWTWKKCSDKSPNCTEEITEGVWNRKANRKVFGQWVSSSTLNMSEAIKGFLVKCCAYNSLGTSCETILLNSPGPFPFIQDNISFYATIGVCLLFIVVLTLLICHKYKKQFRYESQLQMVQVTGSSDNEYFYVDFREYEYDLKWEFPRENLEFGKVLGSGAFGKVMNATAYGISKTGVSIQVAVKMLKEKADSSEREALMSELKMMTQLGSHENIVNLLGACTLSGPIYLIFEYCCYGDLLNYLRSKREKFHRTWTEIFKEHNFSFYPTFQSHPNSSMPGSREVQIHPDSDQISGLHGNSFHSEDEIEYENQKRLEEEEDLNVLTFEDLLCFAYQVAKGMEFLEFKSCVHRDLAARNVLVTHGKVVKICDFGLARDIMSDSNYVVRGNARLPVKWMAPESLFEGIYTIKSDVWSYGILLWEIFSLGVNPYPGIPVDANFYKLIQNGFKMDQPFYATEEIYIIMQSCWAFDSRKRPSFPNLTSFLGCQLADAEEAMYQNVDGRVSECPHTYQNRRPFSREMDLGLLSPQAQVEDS
As to conditions: cited from earlier work.

The subject of a further experiment is QM and E PDACs. The experiment in a line: Relative cell growth in 3D condition upon FFX and/or Oxo treatment (CellTiter Glo). The class given is cell-based, human. To be noted: for killing of / sensitivity to FFX of QM cells when Oxo is added to FOLFIRINOX: QM cells compared to E cells, 3D, 2 weeks. The protocol:
Cell viability was measured using CellTiter Glo assay. […] Then, cells were fixed with 3.7% PFA and stained with crystal violet. Relative colony area was measured using Image J. (d) Images with 2D (Boyden chamber) and 3D invasion assays (type I collagen embedded) of PDAC cell lines incubated with Oxo for 3 days.

Experiment [4] relates to PDAC cell lines. The experiment in a line: 2D (Boyden chamber) and 3D (type I collagen embedded) invasion assays. Format: cell-based, human. To be noted: Oxo for 3 days. The protocol:
as §1

Experiment [5] deals with patient-derived PDAC cell lines. The experiment in a line: RNA-ISH and total RNA sequencing of E/QM (EMT) signatures after Oxo treatment. Format: cell-based, human. As to conditions: for E gene expression (RNA-ISH and RNA sequencing) / QM gene expression (RNA-ISH and RNA sequencing): Oxo 10 μM, 10 days, across PDAC cell lines. The method, then: (c) PDAC3, 9 and 6 cells were treated with Oxo (10 μM) for 10 days in tumorsphere (3D) condition.

SMILES strings stand for the structures.

In the case of `CCCCc1nc(Cl)c(CO)n1Cc1ccc(-c2ccccc2-c2nn[nH]n2)cc1` [Losartan, reference compound], in the experiment with CAF1 monoculture, the “effect on CAFs alone” value was “no effect”. For the same compound, the “additional killing when combined with FOLFIRINOX” value in experiment [1] (PDAC 3 and PDAC 6, monoculture or co-culture with CAF1) was “did not demonstrate any additional killing”. In addition, the “cell growth when combined with FOLFIRINOX” value in [1] (low FOLFIRINOX settings) is reported as “increased cell growth”. Further, the “effect on PDAC cell response to FOLFIRINOX” value in experiment [2] is “did not affect”.

On to `CCCn1/c(=N/C(=O)c2cccc(C(N)=O)c2)[nH]c2ccccc21` [Takinib, reference compound], for which the “sensitization of FOLFIRINOX response (clonogenic assay)” value with PDAC cell lines [3] (QM PDAC cells, FFX and/or Takinib) is given as “not able to sensitize”. For the same compound, the “inhibition of TAK1” value on TAK1 is “selective inhibitor”.

As to `COc1cc(O)c2c(c1)/C=C/C[C@H](O)[C@H](O)C(=O)/C=C\C[C@H](C)OC2=O` [Oxo, (5z)-7-oxozeaenol], in the experiment with CAF1 monoculture, the “effect on CAFs alone” value is “little effect”. Besides, the “inhibition of MEK” value in the experiment with MEK is “inhibit”. Also, the “inhibition of FLT3” value at FLT3 was “inhibit”. For the same compound, in the experiment on QM and E PDACs (E cells BxPC3 and DAN-G), the “sensitivity to Oxo as a single agent” value is on record as “sensitive”. The “killing of / sensitivity to FFX of QM cells when Oxo is added to FOLFIRINOX” value is “synergistic increased killing” in the experiment on QM and E PDACs; “synergistically increased” in the experiment on QM and E PDACs (listed as (5z)-7-Oxozeaenol). For the same compound, the invasiveness / invasion entry is reported as “significant reduction” with PDAC cell lines [4] and “reduced” in the experiment on PDAC cell lines [4] (listed as (5z)-7-Oxozeaenol). In addition, the “migratory abilities / migration” value is reported as “significant reduction” in the experiment with PDAC cell lines [4] and “reduced” with PDAC cell lines [4] (listed as (5z)-7-Oxozeaenol). Further, the “cell killing (cell viability)” value in experiment [1] (increasing doses, 3 days, monoculture and co-culture) is on record as “dose-dependent cell killing”. For the same compound, the “E gene expression (RNA-ISH and RNA sequencing)” value is “enrichment” in [5] (listed as (5z)-7-Oxozeaenol) and “increased” in experiment [5] (listed as oxo). Further, the “QM gene expression (RNA-ISH and RNA sequencing)” value in experiment [5] (listed as (5z)-7-Oxozeaenol) is “decreased”; in experiment [5] (listed as oxo), “significantly suppressed”. The “mesenchymal gene expression (Hallmark EMT geneset)” value is on record as “significantly decreased” in [5] (PDAC 3, 6, and 8); “numerically decreased” in experiment [5] (PDAC 9). Moreover, in [5] (all lines tested, with vs without Oxo), the “global mesenchymal gene expression (200 genes of Hallmark EMT geneset)” value is reported as “numerically lower”. The colony formation result in the experiment with PDAC cell lines [3] (Oxo-treated PDACs) is on record as “significant reduction”. The “effect on PDAC cell response to FOLFIRINOX” value in [2] is reported as “sensitized”. The “inhibition of TAK1” value on TAK1 was “inhibit”.

These data come from patent US20250319061A1, “COMBINATION TREATMENT FOR ADENOCARCINOMA” (The General Hospital Corporation, priority 2022, published 2025).
